{"source": "patent US20030158213A1", "about": "“Xanthine oxidase inhibition as a strategy to alleviate oxidative impairment of vascular function” (priority 2001, published 2003)", "key": {"aorta of SCD mice": {"system": "aorta of SCD mice", "test": "Vessel O2.- production by coelenterazine-enhanced chemiluminescence", "assay_type": "cell-based, mouse", "conditions": "for rates of O2.— production enhanced by xanthine: SCD mouse vessels pretreated, CuZn SOD 30 U/ml, allopurinol 100 μM, BOF-4272 25 μM", "text": "Values represent mean±SD (n=4). Statistical analysis was by two-way ANOVA with the Duncan's post hoc test. *, p<0.05 compared to control. +, p<0.05 compared to xanthine-treated sickle cell vessels. **, […] compared to control and all treated vessel groups."}, "HbA and HbS red cells [1]": {"system": "HbA and HbS red cells", "test": "Red cell nitric oxide consumption", "assay_type": "cell-based, human", "conditions": "extracellular CuZn SOD 100 U ml^−1; DMNQ 100 μM", "text": "Values represent mean±SEM (n=4 to 14). Statistical analysis was by two-way ANOVA with Tukey post hoc test. *, p<0.05 compared with basal;\nAccepting that *NO reacts at almost diffusion-limited rates with O2.— (25), the relative rates of red cell .NO consumption was utilized to probe for differences in both intra-and extracellular O2.— (and possibly LOO—) production by HbA and HbS red cells. […] The presence of endogenous lipid hydroperoxides was undetectable in both HbA and HbS RBC membranes."}, "xanthine oxidase": {"target": "T1, xanthine oxidase (Homo sapiens, UniProt P47989)", "T1 construct": "host or cells: forearm blood vessels, in vivo infusion of oxypurinol", "T1 sequence (P47989 whole entry, the tested form may be a part)": "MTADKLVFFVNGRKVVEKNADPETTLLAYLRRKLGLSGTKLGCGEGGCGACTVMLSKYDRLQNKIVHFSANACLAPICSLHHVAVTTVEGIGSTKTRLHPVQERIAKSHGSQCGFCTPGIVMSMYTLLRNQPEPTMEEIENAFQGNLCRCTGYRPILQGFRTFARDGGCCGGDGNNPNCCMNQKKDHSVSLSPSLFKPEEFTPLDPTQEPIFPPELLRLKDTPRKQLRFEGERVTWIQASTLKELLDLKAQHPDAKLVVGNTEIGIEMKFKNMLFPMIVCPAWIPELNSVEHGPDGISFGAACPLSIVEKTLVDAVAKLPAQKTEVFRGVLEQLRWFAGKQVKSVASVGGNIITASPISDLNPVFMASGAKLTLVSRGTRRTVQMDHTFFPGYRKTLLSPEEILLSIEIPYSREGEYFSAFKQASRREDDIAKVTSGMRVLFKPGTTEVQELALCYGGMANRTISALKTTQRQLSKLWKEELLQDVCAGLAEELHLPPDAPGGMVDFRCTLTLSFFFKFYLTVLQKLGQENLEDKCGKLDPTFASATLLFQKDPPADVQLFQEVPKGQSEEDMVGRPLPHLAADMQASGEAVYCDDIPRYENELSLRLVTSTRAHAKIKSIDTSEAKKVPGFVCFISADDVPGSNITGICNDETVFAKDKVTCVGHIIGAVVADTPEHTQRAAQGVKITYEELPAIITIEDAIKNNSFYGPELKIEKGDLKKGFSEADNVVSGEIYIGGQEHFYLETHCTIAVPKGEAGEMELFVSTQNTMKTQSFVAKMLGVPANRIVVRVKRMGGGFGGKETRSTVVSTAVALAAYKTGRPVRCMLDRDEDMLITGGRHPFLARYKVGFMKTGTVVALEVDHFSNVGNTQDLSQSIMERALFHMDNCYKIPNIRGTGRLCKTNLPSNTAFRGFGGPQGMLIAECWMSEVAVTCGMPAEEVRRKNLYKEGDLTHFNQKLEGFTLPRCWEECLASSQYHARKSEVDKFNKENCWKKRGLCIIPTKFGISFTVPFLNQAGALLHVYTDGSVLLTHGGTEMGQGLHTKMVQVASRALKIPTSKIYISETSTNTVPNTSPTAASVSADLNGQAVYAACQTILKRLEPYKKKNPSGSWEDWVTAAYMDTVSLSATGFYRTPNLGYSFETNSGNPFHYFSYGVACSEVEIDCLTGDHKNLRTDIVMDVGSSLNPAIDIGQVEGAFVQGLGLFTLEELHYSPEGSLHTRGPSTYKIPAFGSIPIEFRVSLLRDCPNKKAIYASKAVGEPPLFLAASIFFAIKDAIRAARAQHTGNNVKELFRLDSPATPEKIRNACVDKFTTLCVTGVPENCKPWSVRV", "conditions": "intravascular concentration of 10 μg/ml; cited from earlier work"}, "[2]": {"conditions": "compared to allopurinol; cited from earlier work"}, "aortic rings [3]": {"system": "aortic rings", "test": "Acetylcholine relaxation of aortic rings from cholesterol-fed rabbits", "assay_type": "cell-based, rabbit", "conditions": "rings from rabbits on 1% cholesterol diet (6 weeks); heparin 1000 U/ml, allopurinol 100 μM", "experimental": "(§1) Increased cell-associated XO can impair endothelial-dependent vascular signaling. When isolated aortic ring segments are incubated with XO for 1 hr and then extensively washed to remove unbound XO, endothelial-dependent relaxations in response to acetylcholine are diminished when the XO substrate xanthine is present in the buffer (FIG. 2A). Inhibition of endothelial-dependent relaxation is abrogated by post-washing treatment of the aortic rings with the XO inhibitor allopurinol, as well as heparin, which inhibits and/or competes for XO binding to endothelial cell GAGs. This ex vivo model of vascular dysfunction reinforces observations made in a model of atherosclerosis. […] Importantly, there appears to be sufficient substrate in the vasculature for XO to catalyze elevated oxidant production, without the need for exogenously added purine."}, "[4]": {"conditions": "at pharmacologic concentrations; cited from earlier work"}, "[5]": {"system": "vessel rings prepared from sickle cell mice", "test": "Relaxation of vessel rings from sickle cell mice to NO-dependent stimuli", "assay_type": "cell-based, mouse", "conditions": "MnTE-2-PyP 50 μM, allopurinol 50 μM"}, "[6]": {"system": "myocardial ischemia-reperfusion injury", "conditions": "clinical; cited from earlier work"}, "[7]": {"system": "myocardial ischemia-reperfusion injury", "conditions": "rabbit; cited from earlier work"}, "aortic rings [8]": {"system": "aortic rings", "test": "Acetylcholine relaxation of aortic rings pre-incubated with XO", "assay_type": "cell-based", "conditions": "rings incubated with XO 10 mU/ml 1 hr, washed; xanthine in buffer; heparin 10-1000 U/ml, allopurinol 10-250 μM", "experimental": "as §1"}, "guanylate cyclase": {"system": "guanylate cyclase", "test": "Ionomycin-induced .NO-dependent cGMP formation, XO-exposed endothelial cells with smooth muscle cells", "assay_type": "cell-based, bovine", "conditions": "BAEC exposed to XO 10 mU/ml 3 hr, washed; xanthine 100 μM, ionomycin 6.7 μM, 15 min; cGMP by ELISA", "experimental": "Endothelial cells were cultured on Transwell filters and exposed to XO (10 mU/ml) for 3 hr and washed extensively. Filters were then transferred to dishes containing smooth muscle cells and incubated with xanthine (100 μM) and ionomycin (6.7 μM)±allopurinol for 15 min. cGMP was then determined by ELISA. (n=3);\nBovine aortic endothelial cell (BAEC) monolayers having bound and potentially internalized XO manifested an impaired ability to support ionomycin-induced, .NO-dependent cGMP formation by adjacent smooth muscle cells."}, "HbA and HbS red cells [9]": {"system": "HbA and HbS red cells", "test": "Red cell O2.- release by cytochrome c reduction", "assay_type": "cell-based, human", "experimental": "If red blood cells from sickle cell patients produce increased amounts of O2. and H2O2 as compared to red blood cells from healthy donors, then local depletion of .NO might be explained on this basis. […] The mean Hb content of HbA and HbS red cell preparations was similar. DMNQ (100 μM) was added to stimulate red cell O2.— production.\nBlood was collected from healthy HbA adult volunteers and homozygous HbS patients in anticoagulated (EDTA) vacu-containers. All individuals were evaluated for cytochrome b5 reductatse and glucose-6-phosphate dehydorgenase activity and none were reported deficient. […] Packed RBCs were diluted to a hematocrit of 2.5% (vol/vol) hemoglobin concentrations as determined with Drabkin's reagent at 540 nm, and rates of O2. release over 2 hours were quanitifed spectrophotometrically by CuZn SOD-inhibitable (100 units/ml, equivalent to approximately 33 ug/ml SOD) reduction of cytochrome c (50 uM) at 550 nm(εM=21 mM^−1cm^−1). In some experiments, O2. release was measured in cells pretreated with DMNQ (Oxis, 100 uM), 3-hydroxy-1,2-dimethyl-4-pyridone (HDP, Aldrich, 0.5 mM), and 4,4-diisothiocyano-2,2 disulfonic acid stilbene (DIDS, Sigma, 200 uM). Possible Hb intereference in determination of rates of cytochrome c reduction was evaluated by performing a singular value decomposition analysis (Matlab, Mathworks, Natick, Mass.)."}, "eNOS": {"system": "eNOS", "test": "NOS activity in lysates of BAEC after oxidant stress", "assay_type": "cell-based, bovine", "conditions": "2 hr, mean ± SEM, n = 3", "text": "Also, XO can serve as a source of H2O2 that in turn will support the oxidative reactions of myeloperoxidase (NO consumption and the generation of chlorinating, nitrating and oxidizing species). Another potential mechanism explaining XO inhibition of endothelial-dependent relaxation and cGMP formation may be oxidant-induced changes in the expression and/or activity of eNOS, especially during more chronic exposure to reactive oxygen species. Bovine aortic endothelial cells (BAEC) were exposed to the redox-cycling quinone 2,3-dimethoxynapthoquinone (DMNQ), which generates controllable and low rates of O2.— and H2O2. Following treatment with DMNQ for 2 hr, the capacity of endothelial cell lysates to oxidize arginine to citrulline was used to indicate eNOS activity. Additional cells were incubated with 10 mU/ml XO for 1 hr, extensively washed and 100 μM xanthine was added during a 1 hr post-incubation period."}, "[10]": {"system": "cultured endothelial cells", "conditions": "heparin on bound XO; enzymes as pretreatment of cells; cited from earlier work"}}, "note": "Entries after “also recorded” stand apart in the source; their conditions may differ. Where two headings read alike, the source gives them in different places."}
{"compound": "CuZn SOD: CuZn superoxide dismutase, O2.- scavenging enzyme", "values": [{"measurement": "rates of O2.— production enhanced by xanthine", "setting": "aorta of SCD mice", "value": "returned to basal rates"}, {"measurement": "rate of .NO consumption", "setting": "HbA and HbS red cells [1]", "value": "did not impact on the rate of .NO consumption"}]}
{"compound": "O=c1[nH]c(=O)c2c[nH]nc2[nH]1", "note": "[Oxypurinol]", "values": [{"measurement": "inhibition of xanthine oxidase activity in the forearm blood vessels", "setting": "xanthine oxidase", "value": "greater than 90%"}, {"measurement": "water solubility", "setting": "[2]", "value": "increased water solubility as compared to allopurinol"}]}
{"compound": "Oc1ncnc2[nH]ncc12", "note": "[allopurinol]", "values": [{"measurement": "restoration of endothelial-dependent relaxation", "setting": "aortic rings [3]", "value": "partially restored endothelial-dependent relaxation; also recorded: significantly reversed"}, {"measurement": "rates of O2.— production enhanced by xanthine", "setting": "aorta of SCD mice", "value": "returned to basal rates"}, {"measurement": "direct antioxidant properties", "setting": "[4]", "value": "no direct antioxidant properties"}, {"measurement": "vessel relaxation in response to NO-dependent stimuli", "setting": "[5]", "value": "reversal of impaired vessel relaxation"}, {"measurement": "myocardial ischemia-reperfusion injury", "setting": "[6]", "value": "attenuated"}, {"measurement": "myocardial ischemia-reperfusion injury", "setting": "[7]", "value": "attenuated"}, {"measurement": "reversal of XO-induced reduction of vasodilation in response to acetylcholine", "setting": "aortic rings [8]", "value": "reversible; also recorded: abrogated"}, {"measurement": "reversal of XO inhibition of .NO-mediated cGMP formation", "setting": "guanylate cyclase", "value": "reversible"}]}
{"compound": "O=S(=O)(O)c1cc(N=C=S)ccc1C=Cc1ccc(N=C=S)cc1S(=O)(=O)O", "note": "[DDS, 4,4-diisothiocyano-2,2 disulfonic acid stilbene]", "values": [{"measurement": "decrease in rates of cytochrome c reduction", "setting": "HbA and HbS red cells [9]; pretreated with 200 μM, both HbA and HbS red cells", "value": "~35", "unit": "%"}]}
{"compound": "COc1cc(-c2cnn3c(=O)nc[n-]c23)ccc1[S+]([O-])c1ccccc1.[Na+]", "note": "(stereo not shown) [BOF-4272]", "values": [{"measurement": "rates of O2.— production enhanced by xanthine", "setting": "aorta of SCD mice", "value": "returned to basal rates"}]}
{"compound": "COC1=C(OC)C(=O)c2ccccc2C1=O", "note": "[DMNQ, 2,3-dimethoxynapthoquinone]", "values": [{"measurement": "rates of O2. production", "setting": "aorta of SCD mice; DMNQ 100 μM, positive control, both control and SCD mouse vessels", "value": "significantly enhanced rates of O2. production"}, {"measurement": "NOS activity", "setting": "eNOS; DMNQ 5 μM", "value": "0.75 ± 0.09", "unit": "pmol/min/mg prot"}, {"measurement": "NOS activity", "setting": "eNOS; DMNQ 50 μM", "value": "0.49 ± 0.60", "unit": "pmol/min/mg prot"}, {"measurement": "rate of .NO consumption", "setting": "HbA and HbS red cells [1]", "value": "significantly increased rates of red cell .NO consumption"}]}
{"compound": "heparin", "values": [{"measurement": "restoration of endothelial-dependent relaxation", "setting": "aortic rings [3]", "value": "partially restored endothelial-dependent relaxation; also recorded: significantly reversed"}, {"measurement": "reversal of XO-induced reduction of vasodilation in response to acetylcholine", "setting": "aortic rings [8]", "value": "reversible; also recorded: abrogated"}, {"measurement": "effect on XO binding to endothelium", "setting": "[10]", "value": "partially displaced"}]}
{"compound": "Cc1c(O)c(=O)ccn1C", "note": "[HDP, 3-hydroxy-1,2-dimethyl-4-pyridone]", "values": [{"measurement": "decrease in O2.—", "setting": "HbA and HbS red cells [9]; preincubation with HDP 0.5 mM, 150 mm Hg O2, pH 7.4", "value": "~36", "unit": "%"}]}
